In PubChem BioAssay AID248 (DTP/NCI, 2004):
Several values for one entry are separate records, joined by “and”; a condition that tells them apart may be missing. Identical values can stand only once. Inconclusive results and toxic doses are left out. No stated cut-off is given here; in the data, active means T/C of 150% or more; inactive means T/C below 125%.

Test system: L1210 leukemia ip in BDF1 mice, survival T/C
Assay: NCI In Vivo Anticancer Drug Screen. Data for tumor model L1210 Leukemia (intraperitoneal) in B6D2F1 (BDF1) mice
Settings: higher = longer survival
Summary of the method: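 Tumor was transplanted into mice, which were then dosed with test compound or vehicle alone. Survival was recorded for each group, and the treated figure was expressed relative to the control figure.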

Measured: T/C

O=c1[nH]cc(F)c(=O)[nH]1
inactive: endpoint: mean survival time, dose: 0.06 mg/kg/injection, schedule: Q#A X Z (ip), vehicle: carboxymethylcellulose (CMC) 103 % of control | endpoint: mean survival time, dose: 0.12 mg/kg/injection, schedule: Q#A X Z (ip), vehicle: carboxymethylcellulose (CMC) 108 % of control | endpoint: mean survival time, dose: 0.25 mg/kg/injection, schedule: Q#A X Z (ip), vehicle: carboxymethylcellulose (CMC) 106 % of control | endpoint: mean survival time, dose: 0.5 mg/kg/injection, schedule: Q#A X Z (ip), vehicle: carboxymethylcellulose (CMC) 112 % of control | endpoint: mean survival time, dose: 0.63 mg/kg/injection, schedule: Q01DX015 (ip), vehicle: water 100 % of control | endpoint: mean survival time, dose: 0.75 mg/kg/injection, schedule: Q03DX006 (ip), vehicle: carboxymethylcellulose (CMC) 105 % of control | endpoint: mean survival time, dose: 1.0 mg/kg/injection, schedule: Q01DX009 (ip), vehicle: other 105 % of control | endpoint: mean survival time, dose: 1.4 mg/kg/injection, schedule: Q01DX Z (ip), vehicle: saline 109 % of control | endpoint: mean survival time, dose: 2.0 mg/kg/injection, schedule: Q01DX005 (iv), vehicle: carboxymethylcellulose (CMC) 108 % of control | endpoint: mean survival time, dose: 2.0 mg/kg/injection, schedule: Q01DX Z (im), vehicle: carboxymethylcellulose (CMC) 108 % of control | endpoint: mean survival time, dose: 2.0 mg/kg/injection, schedule: Q01DX Z (ip), vehicle: carboxymethylcellulose (CMC) 108 % of control | endpoint: mean survival time, dose: 2.5 mg/kg/injection, schedule: Q01DX015 (ip), vehicle: water 107 % of control | endpoint: mean survival time, dose: 4.0 mg/kg/injection, schedule: Q01DX005 (iv), vehicle: carboxymethylcellulose (CMC) 111 % of control | endpoint: mean survival time, dose: 4.8 mg/kg/injection, schedule: Q04DX002 (ip), vehicle: saline 93 % of control and 101 % of control | endpoint: mean survival time, dose: 5.0 mg/kg/injection, schedule: Q01DX006 (ip), vehicle: saline 110 % of control | endpoint: mean survival time, dose: 5.0 mg/kg/injection, schedule: Q01DX010 (ip), vehicle: saline 107 % of control | endpoint: mean survival time, dose: 8.0 mg/kg/injection, schedule: Q01DX005 (iv), vehicle: carboxymethylcellulose (CMC) 108 % of control | endpoint: mean survival time, dose: 8.4 mg/kg/injection, schedule: Q01DX009 (ip), vehicle: saline 102 % of control | endpoint: mean survival time, dose: 8.4 mg/kg/injection, schedule: Q01DX Z (ip), vehicle: saline 102 % of control | endpoint: mean survival time, dose: 9.5 mg/kg/injection, schedule: Q04DX002 (ip), vehicle: saline 101 % of control and 102 % of control | endpoint: mean survival time, dose: 10.0 mg/kg/injection, schedule: Q01DX009 (oral), vehicle: saline 111 % of control | endpoint: mean survival time, dose: 12.5 mg/kg/injection, schedule: Q04DX003 (ip), vehicle: saline 98 % of control | endpoint: mean survival time, dose: 13.3 mg/kg/injection, schedule: Q04DX003 (ip), vehicle: saline 110 % of control | endpoint: mean survival time, dose: 16.0 mg/kg/injection, schedule: Q#A X Z (ip), vehicle: carboxymethylcellulose (CMC) 108 % of control | endpoint: mean survival time, dose: 19.0 mg/kg/injection, schedule: Q04DX002 (ip), vehicle: saline 101 % of control | endpoint: mean survival time, dose: 27.5 mg/kg/injection, schedule: Q01DX012 (sc), vehicle: other 110 % of control | endpoint: mean survival time, dose: 30.0 mg/kg/injection, schedule: Q01DX009 (ip), vehicle: none 109 % of control | endpoint: mean survival time, dose: 30.0 mg/kg/injection, schedule: Q01DX009 (ip), vehicle: saline 101 % of control and 109 % of control | endpoint: mean survival time, dose: 30.0 mg/kg/injection, schedule: Q01DX Z (ip), vehicle: saline 97 % of control | endpoint: mean survival time, dose: 30.0 mg/kg/injection, schedule: Q## X Z (ip), vehicle: saline 98 % of control | endpoint: mean survival time, dose: 39.0 mg/kg/injection, schedule: Q01DX009 (ip), vehicle: saline 109 % of control | endpoint: mean survival time, dose: 39.0 mg/kg/injection, schedule: Q01DX Z (ip), vehicle: saline 96 % of control and 109 % of control | endpoint: mean survival time, dose: 40.0 mg/kg/injection, schedule: Q01DX010 (ip), vehicle: saline 100 % of control | endpoint: mean survival time, dose: 40.0 mg/kg/injection, schedule: Q01DX Z (ip), vehicle: methylcellulose (MC) 103 % of control | endpoint: mean survival time, dose: 45.0 mg/kg/injection, schedule: Q## X006 (ip), vehicle: saline 95 % of control | endpoint: mean survival time, dose: 50.0 mg/kg/injection, schedule: Q01DX Z (ip), vehicle: methylcellulose (MC) 94 % of control | endpoint: mean survival time, dose: 52.0 mg/kg/injection, schedule: Q01DX009 (ip), vehicle: saline 111 % of control | endpoint: mean survival time, dose: 64.0 mg/kg/injection, schedule: Q01DX Z (im), vehicle: carboxymethylcellulose (CMC) 96 % of control | endpoint: mean survival time, dose: 64.0 mg/kg/injection, schedule: Q01DX Z (oral), vehicle: carboxymethylcellulose (CMC) 94 % of control | endpoint: mean survival time, dose: 64.0 mg/kg/injection, schedule: Q01DX Z (sc), vehicle: carboxymethylcellulose (CMC) 105 % of control | endpoint: mean survival time, dose: 65.0 mg/kg/injection, schedule: Q01DX009 (ip), vehicle: saline 93 % of control | endpoint: mean survival time, dose: 67.0 mg/kg/injection, schedule: Q02DX010 (ip), vehicle: other 102 % of control | endpoint: mean survival time, dose: 67.1 mg/kg/injection, schedule: Q01DX005 (sc), vehicle: other 100 % of control | endpoint: mean survival time, dose: 68.0 mg/kg/injection, schedule: Q02DX010 (ip), vehicle: carboxymethylcellulose (CMC) 108 % of control | endpoint: mean survival time, dose: 68.0 mg/kg/injection, schedule: Q02DX010 (ip), vehicle: other 98 % of control | endpoint: mean survival time, dose: 80.0 mg/kg/injection, schedule: Q01DX005 (ip), vehicle: Klucel (hydroxypropylcellulose) (HPC) 97 % of control | endpoint: mean survival time, dose: 80.0 mg/kg/injection, schedule: Q01DX005 (ip), vehicle: acetone 100 % of control | endpoint: mean survival time, dose: 80.0 mg/kg/injection, schedule: Q01DX005 (ip), vehicle: other 100 % of control | endpoint: mean survival time, dose: 80.0 mg/kg/injection, schedule: Q01DX006 (ip), vehicle: saline 103 % of control | endpoint: mean survival time, dose: 80.0 mg/kg/injection, schedule: Q01DX009 (ip), vehicle: none 93 % of control | endpoint: mean survival time, dose: 80.0 mg/kg/injection, schedule: Q01DX009 (ip), vehicle: water 95 % of control | endpoint: mean survival time, dose: 80.0 mg/kg/injection, schedule: Q01DX009 (oral), vehicle: saline 103 % of control | endpoint: mean survival time, dose: 80.0 mg/kg/injection, schedule: Q01DX015 (ip), vehicle: saline 110 % of control | endpoint: mean survival time, dose: 80.0 mg/kg/injection, schedule: Q02DX005 (ip), vehicle: water 108 % of control | endpoint: mean survival time, dose: 90.0 mg/kg/injection, schedule: Q04DX004 (ip), vehicle: saline 98 % of control | endpoint: mean survival time, dose: 94.5 mg/kg/injection, schedule: Q02DX010 (ip), vehicle: carboxymethylcellulose (CMC) 109 % of control | endpoint: mean survival time, dose: 101.0 mg/kg/injection, schedule: Q02DX010 (ip), vehicle: carboxymethylcellulose (CMC) 95 % of control | endpoint: mean survival time, dose: 120.0 mg/kg/injection, schedule: Q01DX006 (ip), vehicle: saline 98 % of control | endpoint: mean survival time, dose: 120.0 mg/kg/injection, schedule: Q04DX003 (ip), vehicle: saline with Tween-80 93 % of control and 96 % of control and 102 % of control | endpoint: mean survival time, dose: 120.0 mg/kg/injection, schedule: Q## X004 (ip), vehicle: water 105 % of control | endpoint: mean survival time, dose: 128.0 mg/kg/injection, schedule: Q01DX005 (iv), vehicle: carboxymethylcellulose (CMC) 109 % of control | endpoint: mean survival time, dose: 164.0 mg/kg/injection, schedule: Q01DX002 (sc), vehicle: other 95 % of control | endpoint: mean survival time, dose: 177.6 mg/kg/injection, schedule: Q01DX001 (ip), vehicle: carboxymethylcellulose (CMC) 111 % of control | endpoint: mean survival time, dose: 180.0 mg/kg/injection, schedule: Q## X004 (ip), vehicle: water 107 % of control | endpoint: mean survival time, dose: 200.0 mg/kg/injection, schedule: Q02DX005 (ip), vehicle: saline 96 % of control | endpoint: mean survival time, dose: 200.0 mg/kg/injection, schedule: Q04DX002 (ip), vehicle: saline 110 % of control | endpoint: mean survival time, dose: 256.0 mg/kg/injection, schedule: Q01DX001 (sc), vehicle: other 101 % of control | endpoint: mean survival time, dose: 256.0 mg/kg/injection, schedule: Q01DX005 (iv), vehicle: carboxymethylcellulose (CMC) 103 % of control | endpoint: mean survival time, dose: 300.0 mg/kg/injection, schedule: Q01DX001 (ip), vehicle: Klucel (hydroxypropylcellulose) (HPC) 104 % of control | endpoint: mean survival time, dose: 320.0 mg/kg/injection, schedule: Q01DX009 (ip), vehicle: saline 94 % of control | endpoint: mean survival time, dose: 400.0 mg/kg/injection, schedule: Q04DX003 (ip), vehicle: saline 97 % of control | endpoint: mean survival time, dose: 400.0 mg/kg/injection, schedule: Q## X004 (ip), vehicle: alkali diluted with saline 109 % of control | endpoint: mean survival time, dose: 600.0 mg/kg/injection, schedule: Q01DX001 (ip), vehicle: carboxymethylcellulose (CMC) 106 % of control | endpoint: mean survival time, dose: 900.0 mg/kg/injection, schedule: Q01DX001 (ip), vehicle: water 101 % of control | endpoint: mean survival time, dose: 900.0 mg/kg/injection, schedule: Q## X004 (ip), vehicle: alkali diluted with saline 104 % of control | endpoint: median survival time, dose: 4.0 mg/kg/injection, schedule: Q01DX009 (ip), vehicle: saline 98 % of control and 100 % of control | endpoint: median survival time, dose: 8.0 mg/kg/injection, schedule: Q01DX009 (ip), vehicle: saline 98 % of control and 100 % of control | endpoint: median survival time, dose: 16.0 mg/kg/injection, schedule: Q01DX009 (ip), vehicle: saline 100 % of control and 102 % of control | endpoint: median survival time, dose: 23.0 mg/kg/injection, schedule: Q04DX003 (oral), vehicle: saline 106 % of control | endpoint: median survival time, dose: 65.0 mg/kg/injection, schedule: Q01DX005 (ip), vehicle: saline 98 % of control | endpoint: median survival time, dose: 65.0 mg/kg/injection, schedule: Q01DX009 (ip), vehicle: saline 106 % of control | endpoint: median survival time, dose: 75.0 mg/kg/injection, schedule: Q01DX001 (ip), vehicle: saline 109 % of control | endpoint: median survival time, dose: 300.0 mg/kg/injection, schedule: Q01DX001 (ip), vehicle: alkali diluted with saline 97 % of control | endpoint: median survival time, dose: 300.0 mg/kg/injection, schedule: Q04DX003 (oral), vehicle: saline 102 % of control | endpoint: median survival time, dose: 300.0 mg/kg/injection, schedule: Q04DX003 (sc), vehicle: saline 105 % of control | endpoint: median survival time, dose: 500.0 mg/kg/injection, schedule: Q04DX003 (oral), vehicle: saline 108 % of control | endpoint: median survival time, dose: 600.0 mg/kg/injection, schedule: Q01DX001 (ip), vehicle: alkali diluted with saline 101 % of control
